Experimental data from patent US7632863B2, “3,4,5,4′-tetramethoxyl-α,β-diphenylethane-3′-O-sodium sulphate and its use” (The Jian Cell Biomedical Research Co., Ltd., priority 2007, dated 2009).
Entries after “also recorded” stand apart in the source; their conditions may differ. Read-outs that look alike come from different tables or passages of the source.

Key:
[1] = system: Lewis lung cancer; assay: Joint administration of AS and DDP, murine model of Lewis lung cancer (Example Five); type: in vivo, C57BL/6J mice; details: for Tumor inhibiting rate % / Tumor weight: i.v., mice bearing Lewis lung cancer
Source text: (1) Sample: 3,4,5,4′-tetramethoxyl-α,β-diphenylethane-3′-O-sodium sulphate (AS), raw material medicine, provided by Zhejiang Cell Biomedical Research Co., Ltd., and prepared by the process in Example One. Batch No.: 061025. Dissolved by physiological saline for the concentration needed.
(2) Cisplatin: Cisplatin for injection (DDP), Qilu Pharmaceutical Co., Ltd. Batch No.: 5120282DC; Dissolved by physiological saline for preparation
(3) Control product: Cyclophosphamide for injection (CTX), Jiangsu Hengrui Pharmaceutical Inc. Co. Batch No.: 04123021. Dissolved by physiological saline for preparation.
(1) C57BL/6J mouse bearing Lewis lung cancer
(2) 70 C57BL/6J mice, female, weighing 17-21 g. Provided by the animal house of Zhejiang Cell Biomedical Research Co., Ltd.
(1) Taking tumor from C57BL/6J mouse under aseptic condition, grinding and diluting it by physiological saline 1:3 (weight:volume), and giving hypodermic inoculation 0.2 ml per mouse in the armpit of the right forelimb of each mouse. dividing the mice into 7 groups randomly the next day, 10 in each group.
(2) After inoculation, waiting till the tumor has grown to the accessible size, administering medicine according to body weight, 0.5 ml/20 g intravenous, for 11 days, putting the mice to death on the 19th after inoculation, taking out and weighing the tumor, and calculating the tumor inhibiting rate.
(§1) (4) Judging the result with the following formula: […]

[2] = system: S180 sarcoma; details: for 0 d weight / 11 d weight without tumor / Tumor inhibiting rate % / Tumor weight: i.v., S180 sarcoma-bearing mice
Source text: (§2) (1) Sample: 3,4,5,4′-tetramethoxyl-α,β-diphenylethane-3′-O-sodium sulphate (AS) provided by Zhejiang Cell Biomedical Research Co., Ltd., and prepared by the process in Example One. Dissolved by physiological saline for the concentration needed.
(2) Cisplatin: Cisplatin for injection (DDP), Qilu Pharmaceutical Co., Ltd. Batch No.: 5120282DC. Dissolved by physiological saline for preparation.
(3) Control product: Cyclophosphamide for injection (CTX), Jiangsu Hengrui Pharmaceutical Inc. Co. Batch No.: 04123021 Dissolved by physiological saline for preparation.
(§3) (1) KM mouse bearing S180 sarcoma.
(2) 70 KM mice, female, weighting 18-22 g, provided by Zhejing College of Traditional Chinese Medicine.
(1) Drawing ascites under aseptic condition from mouse bearing S180 sarcoma, diluting with physiologic saline 1:3, giving subcutaneous inoculation in the armpit of the right forelimb of the KM mice with 0.2 ml each; dividing the mice into 7 groups randomly the next day, 10 in each group.
(§4) (2) Administering drug to the mice by weight the third day of inoculation, intravenous administration 0.5 ml/20 g […], by weight, and putting them to death on the 11th day after inoculation, weighing the tumor and calculating the rate of tumor inhibition.
(§5) (3) dosage (mg/kg/d) and means of administration:
(§6) AS: 50 mg/kg, tail vein injection
(§7) AS: 100 mg/kg, tail vein injection
(§8) AS: 200 mg/kg, tail vein injection
DDP: 1 mg/kg, tail vein injection
AS+DDP: 50 mg/kg+1 mg/kg, tail vein injection
(§9) CTX: 30 mg/kg, tail vein injection
(§10) Setting up another blank control group, tail vein injection of 0.9% NaCl 0.5 ml.
as §1

[3] = Water solubility; type: physicochemical
[4] = LD50 determination, tail vein injection; type: in vivo, mice; details: both sexes, KunMing (KM), mouse, in vivo, intravenous, KM mice, tail vein injection
Description: 1. Experimental animal: KunMing (KM) mice, provided by Shanghai Slac Laboratory Animal Co., Ltd., half and half of female and male, 6 groups, ten in each group, marked by bitter acid.
2. […] Preparing medical solution of equal ratio: dissolving with 0.9% NaCl to prepare the medical solution with the concentration of 336 mg/7 ml, 316.96 mg/7 ml, 299.32 mg/7 ml, 282.52 mg/7 ml, 266.84 mg/7 ml, 252 mg/7 ml.
3. Dosage for administration: with 0.5 ml/20 g bottom up.
4. Means of administration: tail vein injection
5. Experimental method: observing at 0.25 h, 0.5 h, 1 h, 2 h, 4 h, 24 h respectively after administration; then observing once every day 14 days; putting the mice still alive to death on the 15th day and recording the death rate.

[5] = system: S180 sarcoma; details: for 0 d weight / 11 d weight without tumor / Tumor inhibiting rate % / Tumor weight: i.v., S180 sarcoma-bearing mice; remark: listed apart in the source
Source text: as §2
(2) Control product: Cyclophosphamide for injection (CTX), Jiangsu Hengrui Pharmaceutical Inc. Co. Batch No.: 04123021 Dissolved by physiological saline for preparation.
as §3
(2) 50 KM mice, female, weighting 18-22 g, provided by Zhejing College of Traditional Chinese Medicine.
(1) Drawing ascites under aseptic condition from mouse bearing S180 sarcoma, diluting with physiologic saline 1:3, giving subcutaneous inoculation in the armpit of the right forelimb of the KM mice with 0.2 ml each; dividing the mice into 5 groups randomly the next day, 10 in each group.
as §4, §5, §6, §7, §8, §9, §10, §1

SMILES: COc1ccc(CCc2cc(OC)c(OC)c(OC)c2)cc1OS(=O)(=O)[O-].[Na+] [AS, 3,4,5,4′-tetramethoxyl-α,β-diphenylethane-3′-O-sodium sulphate]
- Tumor inhibiting rate % ([1]; Dosage 50 mg/kg): 35.5%
- Tumor weight ([1]; Dosage 50 mg/kg): 3.03 ± 0.55 g
- Tumor inhibiting rate % ([1]; Dosage 100 mg/kg): 36.4%
- Tumor weight ([1]; Dosage 100 mg/kg): 2.99 ± 0.50 g
- Tumor inhibiting rate % ([1]; Dosage 200 mg/kg): 52.1%
- Tumor weight ([1]; Dosage 200 mg/kg): 2.25 ± 0.75 g
- inhibiting the tumor in murine model of Lewis lung cancer (in words) ([1]; alone): quite effective
- inhibiting the tumors in murine model of Lewis lung cancer (in words) ([1]; joint administration with DDP): certain coordinated effect
- 0 d weight ([2]; Dosage 50 mg/kg): 21.06 ± 0.82 g
- 11 d weight without tumor ([2]; Dosage 50 mg/kg): 25.89 ± 3.32 g
- Tumor inhibiting rate % ([2]; Dosage 50 mg/kg): 44%
- Tumor weight ([2]; Dosage 50 mg/kg): 1.63 ± 1.43 g
- 0 d weight ([2]; Dosage 100 mg/kg): 20.46 ± 1.03 g
- 11 d weight without tumor ([2]; Dosage 100 mg/kg): 28.42 ± 4.13 g
- Tumor inhibiting rate % ([2]; Dosage 100 mg/kg): 29%
- Tumor weight ([2]; Dosage 100 mg/kg): 2.07 ± 1.03 g
- 0 d weight ([2]; Dosage 200 mg/kg): 20.45 ± 0.86 g
- 11 d weight without tumor ([2]; Dosage 200 mg/kg): 27.10 ± 2.44 g
- Tumor inhibiting rate % ([2]; Dosage 200 mg/kg): 54%
- Tumor weight ([2]; Dosage 200 mg/kg): 1.34 ± 0.53 g
- effect in inhibiting S180 tumors (in words) ([2]; joint administration with DDP): fine coordinating effect; also recorded: excellent coordinating effect
- water solubility (in words) [3]: good water solubility
- LD50 at 14 days ([4]; observed 14 days, read-out: LD50): 1080 mg/kg
- LD50 at 14 days ([4]; read-out: LD50 (Feiller correction) 95% confidence interval): 1030 to 1130 mg/kg
- 0 d weight ([5]; Dosage 50 mg/kg): 21.06 ± 0.82 g
- 11 d weight without tumor ([5]; Dosage 50 mg/kg): 25.89 ± 3.32 g
- Tumor inhibiting rate % ([5]; Dosage 50 mg/kg): 44%
- Tumor weight ([5]; Dosage 50 mg/kg): 1.63 ± 1.43 g
- 0 d weight ([5]; Dosage 100 mg/kg): 20.46 ± 1.03 g
- 11 d weight without tumor ([5]; Dosage 100 mg/kg): 28.42 ± 4.13 g
- Tumor inhibiting rate % ([5]; Dosage 100 mg/kg): 29%
- Tumor weight ([5]; Dosage 100 mg/kg): 2.07 ± 1.03 g
- 0 d weight ([5]; Dosage 200 mg/kg): 20.45 ± 0.86 g
- 11 d weight without tumor ([5]; Dosage 200 mg/kg): 27.10 ± 2.44 g
- Tumor inhibiting rate % ([5]; Dosage 200 mg/kg): 54%
- Tumor weight ([5]; Dosage 200 mg/kg): 1.34 ± 0.53 g
- inhibitory effect on S180 tumors (in words) ([5]; result analysis): excellent inhibitory effect
